Source: patent US20230135100A1, “PROCESS OF PREPARING A PEPTIDE EPOXYKETONE IMMUNOPROTEASOME INHIBITOR, AND PRECURSORS THEREOF” (KEZAR LIFE SCIENCES, priority 2016, published 2023)
Several values for one entry are separate records, joined by “and”; a condition that tells them apart may be missing. Equal values may be shown once. Where a name gives a salt, the structure may show the parent alone. Read-outs that look alike come from different tables or passages of the source.

Settings: 25° C., relative humidity 40%

SMILES	% Purity at Indicated Time (days) (90 days)	% Decomposition (1 day)	% Purity at Indicated Time (days) (1 day)
C[C@]1(C(=O)[C@@H](N)CC2=CCCC2)CO1 [Tosylate, (S)-3-(cyclopent-1-en-1-yl)-1-((R)-2-methyloxiran-2-yl)-1-oxopropan-2-aminium salt]	96.0 (90) % and 85.0 (90) %	–	–
C[C@]1(C(=O)[C@@H](N)CC2=CCCC2)CO1 [Trifluoroacetate, (S)-3-(cyclopent-1-en-1-yl)-1-((R)-2-methyloxiran-2-yl)-1-oxopropan-2-aminium salt]	–	5.7% and 8.8%	79.6 (1) % and 86.0 (1) %
